Results on 18 compounds are retold here after patent US5843889A, “Glycopeptide antibiotic derivatives” (Eli Lilly and Company, priority 1997, dated 1998).

The term MIC denotes the lowest concentration that inhibits growth of the organism. Lower therefore signals greater potency.

≈ marks a conversion by molar mass, not a printed value.

What all share (test): MIC, standard broth micro-dilution assay
Type in all cases: cell-based

In assay [1] the test system is Entercoccus faecalis 2041. The protocol:
(§1) The formula I compounds have in vitro and in vivo activity against Gram-positive pathogenic bacteria. The MIC's were determined using a standard broth micro-dilution assay.

In a further assay the test system is Entercoccus faecalis 276. The protocol:
as §1

The test system of assay [2] is Entercoccus gallinarum 245. As for the experimental part: as §1

On to `CNC(CC(C)C)C(=O)NC1C(=O)NC(CC(N)=O)C(=O)NC2C(=O)NC3C(=O)NC(C(=O)NC(C(=O)O)c4cc(O)cc(O)c4-c4cc3ccc4O)C(OC3CC(C)(N)C(O)C(C)O3)c3ccc(c(Cl)c3)Oc3cc2cc(c3OC2OC(CO)C(O)C(O)C2OC2CC(C)(NCc3cccc(OC(=O)c4ccccc4)c3)C(O)C(C)O2)Oc2ccc(cc2Cl)C1O` (stereo not drawn) [Compound 162, 3-benzoyloxybenzyl], for which the MIC in assay [1] is ≤ 0.06 µg/mL; in the assay on Entercoccus faecalis 276 it was ≤ 0.06 µg/mL; in assay [2], 2 µg/mL (≈ 1.11 µM).

With `CNC(CC(C)C)C(=O)NC1C(=O)NC(CC(N)=O)C(=O)NC2C(=O)NC3C(=O)NC(C(=O)NC(C(=O)O)c4cc(O)cc(O)c4-c4cc3ccc4O)C(OC3CC(C)(N)C(O)C(C)O3)c3ccc(c(Cl)c3)Oc3cc2cc(c3OC2OC(CO)C(O)C(O)C2OC2CC(C)(NCc3ccc4cc(OC)ccc4c3)C(O)C(C)O2)Oc2ccc(cc2Cl)C1O` (stereo not drawn) [Compound 65, 6-methoxy-2-naphthylmethyl], the results for the MIC (in assay [1]; in the assay with Entercoccus faecalis 276; in assay [2]) were ≤ 0.06 µg/mL, 0.5 µg/mL (≈ 0.284 µM) and 4 µg/mL (≈ 2.27 µM), respectively.

With `CNC(CC(C)C)C(=O)NC1C(=O)NC(CC(N)=O)C(=O)NC2C(=O)NC3C(=O)NC(C(=O)NC(C(=O)O)c4cc(O)cc(O)c4-c4cc3ccc4O)C(OC3CC(C)(N)C(O)C(C)O3)c3ccc(c(Cl)c3)Oc3cc2cc(c3OC2OC(CO)C(O)C(O)C2OC2CC(C)(NCc3ccc4ccc5cccc6ccc3c4c56)C(O)C(C)O2)Oc2ccc(cc2Cl)C1O` (stereo not drawn) [Compound 16, 1-pyrenylmethyl], the minimum inhibitory concentration (MIC) in assay [1] is 0.5 µg/mL (≈ 0.277 µM); with Entercoccus faecalis 276, 2 µg/mL (≈ 1.11 µM); in assay [2], 1 µg/mL (≈ 0.553 µM).

As to `CNC(CC(C)C)C(=O)NC1C(=O)NC(CC(N)=O)C(=O)NC2C(=O)NC3C(=O)NC(C(=O)NC(C(=O)O)c4cc(O)cc(O)c4-c4cc3ccc4O)C(OC3CC(C)(N)C(O)C(C)O3)c3ccc(c(Cl)c3)Oc3cc2cc(c3OC2OC(CO)C(O)C(O)C2OC2CC(C)(NCCCCCCCCOc3ccc(-c4ccccc4)cc3)C(O)C(C)O2)Oc2ccc(cc2Cl)C1O` (stereo not drawn) [Compound 201, 8-[4-phenylphenoxy]octyl], the minimal inhibitory concentration (MIC) amounted to 1 µg/mL (≈ 0.534 µM) in assay [1], 4 µg/mL (≈ 2.14 µM) against Entercoccus faecalis 276 and 8 µg/mL (≈ 4.27 µM) in assay [2].

As for `CC#CCCCCCCCCCCNC1(C)CC(OC2C(Oc3c4cc5cc3Oc3ccc(cc3Cl)C(OC3CC(C)(N)C(O)C(C)O3)C3NC(=O)C(NC(=O)C5NC(=O)C(CC(N)=O)NC(=O)C(NC(=O)C(CC(C)C)NC)C(O)c5ccc(c(Cl)c5)O4)c4ccc(O)c(c4)-c4c(O)cc(O)cc4C(C(=O)O)NC3=O)OC(CO)C(O)C2O)OC(C)C1O` (stereo not drawn) [Compound 199, 11-tridecynyl], the MIC in assay [1] was ≤ 0.06 µg/mL; in the assay on Entercoccus faecalis 276, 1 µg/mL (≈ 0.565 µM); in assay [2], 4 µg/mL (≈ 2.26 µM).

As for `CNC(CC(C)C)C(=O)NC1C(=O)NC(CC(N)=O)C(=O)NC2C(=O)NC3C(=O)NC(C(=O)NC(C(=O)O)c4cc(O)cc(O)c4-c4cc3ccc4O)C(OC3CC(C)(N)C(O)C(C)O3)c3ccc(c(Cl)c3)Oc3cc2cc(c3OC2OC(CO)C(O)C(O)C2OC2CC(C)(NCc3ccc4c(c3O)Cc3ccccc3-4)C(O)C(C)O2)Oc2ccc(cc2Cl)C1O` (stereo not drawn) [Compound 103, 2-[1-hydroxy]fluorenylmethyl], the results for the MIC (in assay [1]; in the assay on Entercoccus faecalis 276; in assay [2]) were ≤ 0.06 µg/mL, 0.25 µg/mL (≈ 0.14 µM) and 8 µg/mL (≈ 4.48 µM), respectively.

As for `CNC(CC(C)C)C(=O)NC1C(=O)NC(CC(N)=O)C(=O)NC2C(=O)NC3C(=O)NC(C(=O)NC(C(=O)O)c4cc(O)cc(O)c4-c4cc3ccc4O)C(OC3CC(C)(N)C(O)C(C)O3)c3ccc(c(Cl)c3)Oc3cc2cc(c3OC2OC(CO)C(O)C(O)C2OC2CC(C)(NCc3ccc(N4CCN(C)CC4)cc3)C(O)C(C)O2)Oc2ccc(cc2Cl)C1O` (stereo not drawn) [Compound 146, 4-[4-methylpiperazino]benzyl], the MIC was 0.5 µg/mL (≈ 0.281 µM) in assay [1], 1 µg/mL (≈ 0.562 µM) with Entercoccus faecalis 276 and 0.5 µg/mL (≈ 0.281 µM) in assay [2].

Take `CNC(CC(C)C)C(=O)NC1C(=O)NC(CC(N)=O)C(=O)NC2C(=O)NC3C(=O)NC(C(=O)NC(C(=O)O)c4cc(O)cc(O)c4-c4cc3ccc4O)C(OC3CC(C)(N)C(O)C(C)O3)c3ccc(c(Cl)c3)Oc3cc2cc(c3OC2OC(CO)C(O)C(O)C2OC2CC(C)(NCC3CCC(c4ccccc4)C3)C(O)C(C)O2)Oc2ccc(cc2Cl)C1O` (stereo not drawn) [Compound 140, 3-phenylcyclopentylmethyl]: the minimum inhibitory concentration (MIC) in assay [1] was ≤ 0.06 µg/mL; in the assay with Entercoccus faecalis 276, 0.5 µg/mL (≈ 0.286 µM); in assay [2] it was 8 µg/mL (≈ 4.57 µM).

Turning to `CNC(CC(C)C)C(=O)NC1C(=O)NC(CC(N)=O)C(=O)NC2C(=O)NC3C(=O)NC(C(=O)NC(C(=O)O)c4cc(O)cc(O)c4-c4cc3ccc4O)C(OC3CC(C)(N)C(O)C(C)O3)c3ccc(c(Cl)c3)Oc3cc2cc(c3OC2OC(CO)C(O)C(O)C2OC2CC(C)(NCCCCCCCCCCCCc3ccccc3)C(O)C(C)O2)Oc2ccc(cc2Cl)C1O` (stereo not drawn) [Compound 234, 12-phenyldodecyl], the MIC in assay [1] turned out to be 0.5 µg/mL (≈ 0.272 µM); with Entercoccus faecalis 276 it was 4 µg/mL (≈ 2.18 µM); in assay [2] it was 16 µg/mL (≈ 8.71 µM).

Take `CCCc1ccc(-c2ccc(CNC3(C)CC(OC4C(Oc5c6cc7cc5Oc5ccc(cc5Cl)C(OC5CC(C)(N)C(O)C(C)O5)C5NC(=O)C(NC(=O)C7NC(=O)C(CC(N)=O)NC(=O)C(NC(=O)C(CC(C)C)NC)C(O)c7ccc(c(Cl)c7)O6)c6ccc(O)c(c6)-c6c(O)cc(O)cc6C(C(=O)O)NC5=O)OC(CO)C(O)C4O)OC(C)C3O)cc2)cc1` (stereo not drawn) [Compound 107, 4-[4-propylphenyl]benzyl]: the MIC in assay [1] amounted to 0.5 µg/mL (≈ 0.278 µM); against Entercoccus faecalis 276, 1 µg/mL (≈ 0.555 µM); in assay [2] it was 2 µg/mL (≈ 1.11 µM).

As for `CCCCCC#Cc1ccc(CNC2(C)CC(OC3C(Oc4c5cc6cc4Oc4ccc(cc4Cl)C(OC4CC(C)(N)C(O)C(C)O4)C4NC(=O)C(NC(=O)C6NC(=O)C(CC(N)=O)NC(=O)C(NC(=O)C(CC(C)C)NC)C(O)c6ccc(c(Cl)c6)O5)c5ccc(O)c(c5)-c5c(O)cc(O)cc5C(C(=O)O)NC4=O)OC(CO)C(O)C3O)OC(C)C2O)cc1` (stereo not drawn) [Compound 227, 4-[1-heptynyl]benzyl], the minimal inhibitory concentration (MIC) in assay [1] was 0.25 µg/mL (≈ 0.141 µM); in the assay on Entercoccus faecalis 276 it was 0.5 µg/mL (≈ 0.281 µM); in assay [2] it was 4 µg/mL (≈ 2.25 µM).

Turning to `CN[C@H](CC(C)C)C(=O)N[C@H]1C(=O)N[C@@H](CC(N)=O)C(=O)N[C@H]2C(=O)N[C@H]3C(=O)N[C@H](C(=O)N[C@H](C(=O)O)c4cc(O)cc(O)c4-c4cc3ccc4O)[C@H](O[C@H]3C[C@](C)(N)[C@@H](O)[C@H](C)O3)c3ccc(c(Cl)c3)Oc3cc2cc(c3O[C@@H]2O[C@H](CO)[C@@H](O)[C@H](O)[C@H]2O[C@H]2C[C@](C)(NCc3cccc(-c4ccccc4)c3)[C@@H](O)[C@H](C)O2)Oc2ccc(cc2Cl)[C@H]1O` [Compound 91, 3-phenylbenzyl], the MIC is ≤ 0.06 µg/mL in assay [1], ≤ 0.06 µg/mL in the assay on Entercoccus faecalis 276 and 2 µg/mL (≈ 1.14 µM) in assay [2].

For the compound `CNC(CC(C)C)C(=O)NC1C(=O)NC(CC(N)=O)C(=O)NC2C(=O)NC3C(=O)NC(C(=O)NC(C(=O)O)c4cc(O)cc(O)c4-c4cc3ccc4O)C(OC3CC(C)(N)C(O)C(C)O3)c3ccc(c(Cl)c3)Oc3cc2cc(c3OC2OC(CO)C(O)C(O)C2OC2CC(C)(NCc3ccc4ccccc4n3)C(O)C(C)O2)Oc2ccc(cc2Cl)C1O` (stereo not drawn) [Compound 30, 2-quinolylmethyl], the MIC in assay [1] is ≤ 0.06 µg/mL; in the assay on Entercoccus faecalis 276, 0.25 µg/mL (≈ 0.144 µM); in assay [2], ≤ 0.06 µg/mL.

As for `CNC(CC(C)C)C(=O)NC1C(=O)NC(CC(N)=O)C(=O)NC2C(=O)NC3C(=O)NC(C(=O)NC(C(=O)O)c4cc(O)cc(O)c4-c4cc3ccc4O)C(O)c3ccc(c(Cl)c3)Oc3cc2cc(c3OC2OC(CO)C(O)C(O)C2OC2CC(C)(NCc3cccc4ccccc34)C(O)C(C)O2)Oc2ccc(cc2Cl)C1O` (stereo not drawn) [Compound 180, 1-napthylmethyl], the minimal inhibitory concentration (MIC) in assay [1] was found to be 0.25 µg/mL (≈ 0.157 µM); with Entercoccus faecalis 276, 2 µg/mL (≈ 1.26 µM); in assay [2] it was 0.25 µg/mL (≈ 0.157 µM).

Take `CCCCCCCCOc1ccc(-c2ccc(CNC3(C)CC(OC4C(Oc5c6cc7cc5Oc5ccc(cc5Cl)C(OC5CC(C)(N)C(O)C(C)O5)C5NC(=O)C(NC(=O)C7NC(=O)C(CC(N)=O)NC(=O)C(NC(=O)C(CC(C)C)NC)C(O)c7ccc(c(Cl)c7)O6)c6ccc(O)c(c6)-c6c(O)cc(O)cc6C(C(=O)O)NC5=O)OC(CO)C(O)C4O)OC(C)C3O)cc2)cc1` (stereo not drawn) [Compound 23, 4-[4-octyloxyphenyl]benzyl]: the values for the minimum inhibitory concentration (MIC) (in assay [1]; against Entercoccus faecalis 276; in assay [2]) were 32 µg/mL (≈ 17 µM), 32 µg/mL (≈ 17 µM) and 8 µg/mL (≈ 4.24 µM), respectively.

As to `CNC(CC(C)C)C(=O)NC1C(=O)NC(CC(N)=O)C(=O)NC2C(=O)NC3C(=O)NC(C(=O)NC(C(=O)O)c4cc(O)cc(O)c4-c4cc3ccc4O)C(OC3CC(C)(N)C(O)C(C)O3)c3ccc(c(Cl)c3)Oc3cc2cc(c3OC2OC(CO)C(O)C(O)C2OC2CC(C)(NCc3ccc(Nc4ccccc4)cc3)C(O)C(C)O2)Oc2ccc(cc2Cl)C1O` (stereo not drawn) [Compound 160, 4-anilinobenzyl], the MIC in assay [1] was ≤ 0.06 µg/mL; against Entercoccus faecalis 276, 2 µg/mL (≈ 1.13 µM); in assay [2], 8 µg/mL (≈ 4.51 µM).

For the compound `CNC(CC(C)C)C(=O)NC1C(=O)NC(CC(N)=O)C(=O)NC2C(=O)NC3C(=O)NC(C(=O)NC(C(=O)O)c4cc(O)cc(O)c4-c4cc3ccc4O)C(OC3CC(C)(N)C(O)C(C)O3)c3ccc(c(Cl)c3)Oc3cc2cc(c3OC2OC(CO)C(O)C(O)C2OC2CC(C)(NCc3cccc(Oc4ccc(Cl)cc4)c3)C(O)C(C)O2)Oc2ccc(cc2Cl)C1O` (stereo not drawn) [Compound 86], the figures for the MIC (in assay [1]; in the assay on Entercoccus faecalis 276; in assay [2]) were ≤ 0.06 µg/mL, ≤ 0.06 µg/mL and 1 µg/mL (≈ 0.553 µM), respectively.

Take `CNC(CC(C)C)C(=O)NC1C(=O)NC(CC(N)=O)C(=O)NC2C(=O)NC3C(=O)NC(C(=O)NC(C(=O)O)c4cc(O)cc(O)c4-c4cc3ccc4O)C(OC3CC(C)(N)C(O)C(C)O3)c3ccc(c(Cl)c3)Oc3cc2cc(c3OC2OC(CO)C(O)C(O)C2OC2CC(C)(NCc3cc(C)cs3)C(O)C(C)O2)Oc2ccc(cc2Cl)C1O` (stereo not drawn) [Compound 66, 3-methyl-5-thienylmethyl]: the MIC is ≤ 0.06 µg/mL in assay [1], ≤ 0.06 µg/mL in the assay with Entercoccus faecalis 276 and 8 µg/mL (≈ 4.7 µM) in assay [2].
